What all share (type): in vivo
Data set [1] concerns German cockroaches (Blattella germanica). Kind of data set: Test Example 3: control test against German cockroaches, spray in chamber. Particulars: adult German cockroaches; 1.5 mL sprayed; concentration [%]: broflanilide 0.02, imiprothrin 0.01, cyfluthrin 0.0016, alone or mixed; 420 minutes after spraying. The text has this: Next, the usefulness of the inventive composition for controlling pests will be indicated by Test Examples.
(hereinafter referred to as expected value A)
(hereinafter referred to as expected value B)
In a plastic cup (diameter: 12.4 cm, height: 10.2 cm) lined with a filter paper, ten adult German cockroaches (Blattella germanica) (five males and five females each) were released, and the plastic cup was placed in the center of the bottom of a box-shaped chamber (46 cm×46 cm×70 cm in height). From the height of 60 cm, 1.5 mL of each of formulations prepared by dissolving a single agent of any one of broflanilide, imiprothrin and cyfluthrin, or a mixed agent of two or more thereof in a mixture of isopropyl alcohol and Isopar M at a mixing ratio of 1:9 was sprayed under a spray pressure of 0.041 MPa. After a lapse of 420 minutes from spraying, the number of dead and moribund individuals was examined, and moribund and mortal rates (%) were determined by the above equation 3. The test was performed through two replicates. Dead individuals are completely immobile individuals, and moribund individuals are individuals who cannot get up when turned on their backs.

The test system is the same in data set [2]. Kind of data set: Test Example 7: control test against German cockroaches, spray in chamber. As to conditions: adult German cockroaches; 1.5 mL sprayed; concentration [%]: isocycloseram 0.05, imiprothrin 0.01, cypermethrin 0.01, alone or mixed; 120 minutes after spraying. The protocol:
(§1) Next, the usefulness of the inventive composition for controlling pests will be indicated by Test Examples. In general, the control effect to be expected when treated with a mixture obtained by mixing given two or three types of active ingredient compounds is determined by the Colby's calculation equation represented by the following [Equation 1] and [Equation 2].
(§2) [formula] • P: moribund and mortal rates (%) when treated with an active ingredient compound X in the concentration of m [ppm] • Q: moribund and mortal rates (%) when treated with an active ingredient compound Y in the concentration of n [ppm] • EA: moribund and mortal rates (%) when treated with an active ingredient compound X in the concentration of m [ppm] and an active ingredient compound Y in the concentration of n [ppm] (hereinafter referred to as expected value A) […]
(§3) Regarding the synergistic effect of three types of the active ingredient compounds, in case where the moribund and mortal rates (%) when actually treated with a mixture obtained by mixing three types of the active ingredient compounds exceed the expected value A calculated by using the moribund and mortal rates (%) when actually treated with a mixture obtained by mixing two types of the active ingredient compounds among three types thereof, and the moribund and mortal rates (%) calculated when actually treated the remaining one type of the active ingredient compound, or the expected value B (%) calculated from the moribund and mortal rates (%) when actually treated with each of three types of the active ingredient compounds alone, it was determined that the synergistic effect exists. […]

Data set [3] shares this test system. Kind of data set: Test Example 8: control test against German cockroaches, spray in chamber. Particulars: adult German cockroaches; 1.5 mL sprayed; concentration [%]: nicofluprole 0.01, imiprothrin 0.01, phenothrin 0.1, alone or mixed; 45 minutes after spraying. As to the method: as §1, §2, §3
Data set [4] has the same test system. Kind of data set: Test Example 10: control test against German cockroaches, spray in chamber. Particulars: adult German cockroaches; 1.5 mL sprayed; concentration [%]: nicofluprole 0.01, imiprothrin 0.01, permethrin 0.05, alone or mixed; 60 minutes after spraying. The protocol: as §1, §2, §3

For the molecule `C#CCN1CC(=O)N(COC(=O)[C@@H]2C(C=C(C)C)C2(C)C)C1=O` (mixture of isomers) [Imiprothrin, imiprothrin], the “Moribund and mortal rates [%] after 420 minutes” value in data set [1] was 15%. In addition, in data set [2], the “Moribund and mortal rates [%] after 120 minutes” value was determined as 5%. Also, the “Moribund and mortal rates [%] after 45 minutes” value in data set [3] was determined as 65%. In addition, in data set [4], the “Moribund and mortal rates [%] after 60 minutes” value is reported as 40%.

The values above are taken from US20240373851A1, “PEST CONTROL COMPOSITION AND PEST CONTROL METHOD” (SUMITOMO CHEMICAL COMPANY, LIMITED, priority 2021, published 2024).
